Assay results as given in patent US20030013658A1, “Small peptides and methods for treatment of asthma and inflammation” (Hisatek, LLC, priority 1997, published 2003).
“Also recorded” adds a separate entry of the source. Where no end group is shown, it is not given here. The star is where a group is joined. For = O=C*

System: OVA-sensitized/challenged mice
Assay: OVA-induced bronchial asthma mouse model (Standard/Resolution protocols, 1-3 month), airway eosinophils and mucus plugs
Type: in vivo
Description: The OVA-induced Bronchial Asthma Mouse Model for Inhibition of Mast Cell Degranulation
Reagents: Crystalline OVA was obtained from Pierce Chem. Co. (Rockford, Ill.) aluminum potassium sulfate (alum) from Sigma Chem. Co. (St. Louis, Mo.), pyrogen-free distilled water from Baxter, Healthcare Corporation (Deerfield, Ill.), 0.9% sodium chloride (normal saline) from Lymphomed (Deerfield, Ill.) and Trappsol™ HPB-L100 (aqueous hydroxypropyl beta cyclodextrin; 45 wt/vol % aqueous solution) from Cyclodextrin Technologies Development, Inc. (Gainesville, Fla.). The OVA (500 μg/ml in normal saline) was mixed with equal volumes of 10% (wt/vol) alum in distilled water. The mixture (pH 6.5 using 10 N NaOH) after incubation for 60 minutes at room temperature underwent centrifugation at 750 g for 5 minutes; the pellet was resuspended to the original volume in distilled water and used within one hour.
The selective 5-lipoxtgenase inhibitor, Zileuton (N-[1-benzo[b]thien-2-ylethyl]-N-hydroxyurea; J. Pharmacol Exp Ther. 1991; 256: 929-937), was kindly provided by Drs. Bell and George W. Carter (Abbott Laboratories, Abbott Part, Ill.). Zileuton was dissolved in Trappsol.™. Histatek, Inc. (Seattle, Wash.) provided the mast cell degranulation inhibitor, f-Met-Leu-Phe-Phe (“HK-X”).
Female BALB/c […] (6-8 wk of age at purchase; D and K, Seattle Wash.) were housed under conventional conditions for the studies.
Allergen Immunization/Challenge Protocols: Mice received an i.p. injection of 0.2 ml (100 μg) of OVA with alum on the different protocols of Standard (FIG. 5A) and Resolution (FIG. 5B) (J. Exp Med. 1996; 184: 1483-1494). According to the different protocols, mice were anesthetized with 0.2 ml i.p. of ketamine (0.44 mg/ml)/xylazine (6.3 mg/ml) in normal saline before receiving an intranasal (i.n.) does of 100 μg OVA in 0.05 ml normal saline and an i.n. dose of 50 μg OVA in 0.05 ml normal saline separately on different days. Two control groups were used. Accordingly, the first group received normal saline with alum i.p. and normal saline without alum i.n.; the second group received OVA with alum i.p., OVA without alum i.n., and normal saline, alone.
The trachea and left lung (the right lung is used for bronchoalveolar lavage (“BAL”)) were obtained and fixed in 10% neutral formaldehyde solution at room temperature for 6˜15 h. After being embedded in paraffin, the tissues were cut into 5-um sections and processed with the different staining or immunolabling further. Discombe's eosinophil staining was used for counting the cell numbers with the counterstain of methylene blue. The eosinophil number per unit airway area (2,200 μm^2) was determined by morphometry (J. Pathol. 1992; 166: 395-404; Am Rev Respir Dis. 1993; 147:448-456). Fibrosis was identified with the Masson's trichrome staining. Airway mucus was identified by the following staining method: methylene blue, hematoxylin and eosin, mucicarmine, alcian blue, and alcian blue/periodic acid-Schiff (PAS) reaction (Troyer, H., “Carbohydrates” in Principles and Techniques of Histochemistry, Little, Brown and Company, Boston, Mass., 1980: 89-121; Sheehan, D. C., et al., “Carbohydrates” in Theory and Practice of Histotechnology, Battle Press, Columbus, Ohio, 1980: 159-179) Mucin was stained with mucicarmine solution; metanil yellow counterstain was employed. Acidic mucin and sulfated mucosubstances were stained with alcian blue, pH 2.5; nuclear fast red counterstain was used. Neutral and acidic mucosubstances were identified by alcian blue, pH 2.5, and PAS reaction. The degree of mucus plugging of the airways (0.5-0.8 mm in diameter) was also assessed by morphometry. The percent occlusion of airway diameter by mucus was classified on a semiquantitative scale from 0 to 4+ as described in Figure Legends. The histologic and morphometric analyses were performed by individuals blinded to the protocol design. […]

f-Met-Leu-Phe-Phe (For-MLFF) [Example 9]
AIRWAY INFLUX OF EOSINOPHILS (%) (1 month): 14.20%
% of plug of airway (28 days): 19%
PERCENTAGE OF EOSINOPHILS IN AIRWAY TISSUE (28 days of treatment): 14.2%
MUCUS PLUG SCORE IN AIRWAYS (28 days, semiquantitative scale 0 to 4+): 1.4
mucus accumulation / mucus release in airway (HK-X given before i.n. OVA, morphometry, FIG. 6, listed as HK-X): inhibits mucus accumulation in the airway; also recorded: airway mucus release in the airway (AW) lumen is markedly reduced
infiltration of the interstitial tissue by eosinophils (compared to OVA-challenge alone, FIG. 6C): infiltration of the interstitial tissue by eosinophils is also reduced
formation of mucus plugs / mucus production in small airways (doses of 5 μg/kg and 10 μg/kg, FIG. 7): Both doses significantly reduce the mucus production in small airways
reduction of airway eosinophils compared with Zileuton (one month): reduced eosinophils comparably at one month
reduction of airway eosinophils compared with Zileuton (two and three months): much more beneficially at two and three months
